Assay results from US10759796B2, “CXCR4 inhibitors and uses thereof” (X4 Pharmaceuticals, Inc., priority 2016, dated 2020).

Legend:
[1] = target: Jurkat cells expressing CXCR4 (Homo sapiens (Human), UniProt P61073); test: Chemokine (CXCL12-AF647) binding inhibition assay; conditions: CXCL12-AF647 25 ng/mL, read-out: IC50 CXCL-12 binding Jurkat
Experimental: Chemokine (CXCL12-AF647) Binding Inhibition Assay
Jurkat cells expressing CXCR4 were washed once with assay buffer (Hanks' balanced salt solution with 20 mM HEPES buffer and 0.2% bovine serum albumin, pH 7.4) and then incubated for 15 min at room temperature with the test compounds diluted in assay buffer at dose-dependent concentrations. Subsequently, CXCL12-AF647 (25 ng/mL) was added to the compound-incubated cells. The cells were incubated for 30 min at room temperature. Thereafter, the cells were washed twice in assay buffer, fixed in 1% paraformaldehyde in PBS, and analyzed on the FL4 channel of a FACSCalibur flow cytometer equipped with a 635-nm red diode laser (Becton Dickinson, San Jose, Calif., USA).
The percentages of inhibition of CXCL12-AF647 binding were calculated according to the formula: [1−((MFI−MFINC)/(MFIPC−MFINC))]×100 where MFI is the mean fluorescence intensity of the cells incubated with CXCL12-AF647 in the presence of the inhibitor, MFINC is the mean fluorescence intensity measured in the negative control (i.e., autofluorescence of unlabeled cells), and MFIPC is the mean fluorescence intensity of the positive control (i.e., cells exposed to CXCL12-AF647 alone).

[2] = target: CXCR-4 transfected U87 cell line (U87.CXCR4) (Homo sapiens (Human), UniProt P61073); test: Intracellular CXCL-12-induced calcium mobilization assay (FLIPR); type: cell-based; conditions: U87.CXCR4 cells, CXCL-12 25-50 ng/mL; read-out: IC50 CXCL-12 Ca2+ flux U87.CXCR4+
Experimental: Example 28: REGA Screening Assay
Intracellular CXCL-12-Induced Calcium Mobilization Assay
Intracellular calcium mobilization induced by chemokines or chemokine-derived peptides were evaluated using a calcium responsive fluorescent probe and a FLIPR system. The CXCR-4 transfected U87 cell line (U87.CXCR4) cells were seeded in gelatine-coated black-wall 96-well plates at 20,000 cells per well and incubated for 12 hours. Cells were then loaded with the fluorescent calcium probe Fluo-2 acetoxymethyl at 4 μM final concentration in assay buffer (Hanks' balanced salt solution with 20 mM HEPES buffer and 0.2% bovine serum albumin, pH 7.4) for 45 min at 37° C. The intracellular calcium mobilization induced by the CXCL-12 (25-50 ng/mL) was then measured at 37° C. by monitoring the fluorescence as a function of time in all the wells simultaneously using a fluorometric imaging plate reader (FLIPR Tetra, Molecular Devices).

[3] = in vitro; conditions: human, Caco-2, pH 7.4
Experimental: Example 28: Caco-2 Permeability Assay
The goal of this assay was to evaluate the intestinal absorption potential of drug candidates using Caco-2 cell lines.
1. Prewarm Prewarm HBSS Buffer in 37° C. water bath
2. Sonicate Take compounds from −20° C., sonicate for a few minutes (no less than 1 minute)
HBSS buffer with 0.3% DMSO and 5 μM LY: add 150 μL DMSO and 50 μL LY (5 mM) into 50 ml HBSS buffer (pH 7.4).
HBSS buffer with 0.1% DMSO and 5 μM LY: add 50 μL DMSO and 50 μL LY (5 mM) into 50 mL HBSS buffer (pH 7.4).
HBSS buffer with 0.3% DMSO: add 150 μL DMSO into 50 ml HBSS buffer (pH 7.4).
HBSS buffer with 0.1% DMSO: add 50 μL DMSO into 50 ml HBSS buffer (pH 7.4).
Receiver Solution Buffer:
Prepare HBSS buffer with 0.4% DMSO: add 200 μL DMSO into 50 ml HBSS buffer (pH 7.4).
Prepare HBSS buffer with 0.4% DMSO and 5 μM LY: add 200 μL DMSO and 50 μL LY (5 mM) into 50 ml HBSS buffer (pH 7.4).
4. Measure TEER Take cell culture plate out of incubator, wash the cell monolayers with HBSS buffer, and then measure TEER values at Rm temperature. 5. Centrifuge Centrifuge the compound solution (from step 3) at 4000 rpm for 5 min before loading to donor chambers. 6. Dosing Add solution based on the volumes listed in the following table (make sure to take extra 100 μL of donor sample for TO as Backup).
7. Apical LYT0 Samples To determine LY concentration in the apical chember, take 100 μL sample from apical chambers into an opaque plate for LYT0. 8. Prewarm Prewarm apical and basolateral plates at 37° C. for about 5 min, then begin transport by placing the apical plate onto basolateral plate. 9. Incubation Keep the plates in incubator at 37° C. for 90 min. 10. Standard Curve Preparation
For 300 μM compound solution, add 6 μL of compound stock solution into 192 μL of MeOH/H2O (1:1).
Prepare Working Solution in MeOH/H2O (1:1)
3 μL (20×)+57 μL of 0.4% DMSO HBSS+60 μL ACN with IS (Osalmid or Imipramine) - - - 120 μL (1×)
11. Transport Termination Separate the apical plate from the basolateral plate after 90-min incubation.
12. Measure LY Take 100 μL samples from basolateral plate to an opaque plate as LYT90.
13. Measure LY concentrations for LYT0 and LYT90 by Fluorometer (at excitation of 485 nm/emission of 535 nm).
Study details: Test concentration 10 μM
Test systems: Caco-2/HBSS solution
Incubation conditions: 0, 90 min at 37° C.
Sample size: Duplicates (n=2)
Bioanalytical method: LC-MS/MS
For Millicell-24 Cell Culture Plates: surface area of the membrane=0.7 cm^2, VA=0.8 mL (A-to-B) or 0.4 mL (B-to-A)
1. Papp values were calculated based on calculated concentrations.
The compound numbers correspond to the compound numbers in Table 1.

Sequence of CXCR-4 transfected U87 cell line (U87.CXCR4) (P61073 whole entry): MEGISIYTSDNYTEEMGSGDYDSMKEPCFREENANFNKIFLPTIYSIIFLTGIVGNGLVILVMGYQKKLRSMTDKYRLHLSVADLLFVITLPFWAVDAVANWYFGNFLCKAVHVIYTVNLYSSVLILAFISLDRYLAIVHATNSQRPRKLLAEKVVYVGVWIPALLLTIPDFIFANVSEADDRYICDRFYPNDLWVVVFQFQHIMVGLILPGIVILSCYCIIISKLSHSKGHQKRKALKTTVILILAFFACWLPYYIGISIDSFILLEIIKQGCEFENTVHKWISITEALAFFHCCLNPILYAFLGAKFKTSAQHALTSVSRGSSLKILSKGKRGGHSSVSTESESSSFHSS
Sequence of Jurkat cells expressing CXCR4 (P61073 whole entry): as above

Compound | IC50 [1] [nM] | IC50 [2] [nM] | Papp A→B at 90 min, 10 μM [3] [×10⁻⁶ cm/s] | Papp B→A at 90 min, 10 μM [3] [×10⁻⁶ cm/s] | efflux ratio at 90 min, 10 μM [3]
CC(C)c1cccnc1[C@@H]1CCC[C@H](c2nc3cccc(N4CCN(C)CC4)n3c2Cl)N1C [Compound I-91] | 100 to 1000 | ≥ 1000 | 0.1 to 10 | 0.1 to 10 | 0.1 to 10
Cc1cccnc1[C@@H]1CC(=O)C[C@H](c2cn3c(N4CCN(C)CC4)cccc3n2)N1C [Compound I-3] | 0.01 to 100 | 0.01 to 100 | 0.1 to 10 | 0.1 to 10 | 0.1 to 10
Cc1cccnc1[C@@H]1CCC[C@H](c2cn3c(N4CCN(C)CC4)cccc3n2)N1CCO [Compound I-87] | 0.01 to 100 | 0.01 to 100 | 0.1 to 10 | 10 to 30 | 10 to 30
CN1CCN(c2cccc3nc([C@H]4CCC[C@@H](c5ncccc5Cl)N4C)cn23)CC1 [Compound I-82] | 0.01 to 100 | 0.01 to 100 | 0.1 to 10 | 10 to 30 | 0.1 to 10
CCN1CCN(c2cccc3nc([C@H]4CCC[C@@H](c5ncccc5Cl)N4C)c(Cl)n23)CC1 [Compound I-125] | 0.01 to 100 | 100 to 1000 | 0.1 to 10 | 0.1 to 10 | 0.1 to 10
CCOCc1c([C@H]2CCC[C@@H](c3ncccc3C)N2C)nc2cccc(N3CCN(C4CC4)CC3)n12 [Compound I-58] | 100 to 1000 | ≥ 1000 | 10 to 30 | 10 to 30 | 0.1 to 10
Cc1cccnc1[C@@H]1CCC[C@H](c2cn3c(N4C5CCC4CNC5)cccc3n2)N1C [Compound I-110] | 0.01 to 100 | 0.01 to 100 | 0.1 to 10 | 10 to 30 | > 30
Cc1cccnc1[C@@H]1CCC[C@H](c2cn3c(N4CCN(CC(F)(F)F)CC4)cccc3n2)N1C [Compound I-14] | 100 to 1000 | 100 to 1000 | 10 to 30 | 10 to 30 | 0.1 to 10
CN1CCN(c2cccc3nc([C@H]4CCC[C@@H](c5ncccc5C(F)(F)F)N4C)cn23)CC1 [Compound I-80] | 0.01 to 100 | 100 to 1000 | 0.1 to 10 | 0.1 to 10 | 0.1 to 10
COc1cccnc1[C@@H]1CCC[C@H](c2nc3cccc(N4CCNC5(CC5)C4)n3c2Cl)N1 [Compound I-175] | ≥ 1000 | ≥ 1000 | 0.1 to 10 | 10 to 30 | 0.1 to 10
Cc1cccnc1[C@H]1CCC[C@@H](c2nc3cccc(N4CCN(C)CC4)n3c2C)N1 (stereo in doubt) [Compound I-192] | 0.01 to 100 | 0.01 to 100 | 0.1 to 10 | 10 to 30 | 0.1 to 10
Cc1cccnc1[C@@H]1CCC[C@H](c2cn3c(N4CCN(C)CC4)cccc3n2)N1C(C)C [Compound I-126] | 0.01 to 100 | 0.01 to 100 | 0.1 to 10 | 10 to 30 | 10 to 30
Cc1cccnc1[C@@H]1CCC[C@H](c2nc3cccc(N4CCN(C)CC4)n3c2CO)N1C [Compound I-11] | 0.01 to 100 | 0.01 to 100 | 0.1 to 10 | 10 to 30 | 0.1 to 10
Cc1cccnc1[C@@H]1CCC[C@H](c2nc3cccc(N4CCN(C)CC4)n3c2COC2CC2)N1C [Compound I-85] | 0.01 to 100 | 0.01 to 100 | 0.1 to 10 | 10 to 30 | 0.1 to 10
CCOCc1c([C@H]2CCC[C@@H](c3ncccc3C)N2C)nc2cccc(N3CCN(C(C)C)CC3)n12 [Compound I-57] | 0.01 to 100 | 0.01 to 100 | 0.1 to 10 | 10 to 30 | 0.1 to 10
CC(C)N1CCN(c2cccc3nc([C@H]4CCC[C@@H](c5ncccc5Cl)N4C)cn23)CC1 [Compound I-150] | 0.01 to 100 | ≥ 1000 | 0.1 to 10 | 10 to 30 | 0.1 to 10
CN1CCN(c2cccc3nc([C@H]4CCC[C@@H](c5ncccc5C5CC5)N4)c(Cl)n23)CC1 [Compound I-180] | 0.01 to 100 | 0.01 to 100 | 10 to 30 | 10 to 30 | 0.1 to 10
COc1cccnc1[C@@H]1CCC[C@H](c2cn3c(N4CCN(C)CC4)cccc3n2)N1 [Compound I-191] | 0.01 to 100 | 100 to 1000 | 0.1 to 10 | > 30 | 10 to 30
COCc1c([C@H]2CCC[C@@H](c3ncccc3C)N2C)nc2cccc(N3CCN(C)CC3)n12 [Compound I-12] | 0.01 to 100 | 0.01 to 100 | 0.1 to 10 | 10 to 30 | 0.1 to 10
Cc1cccnc1[C@@H]1CCC[C@H](c2cn3c(N4CCN(C5CCOCC5)CC4)cccc3n2)N1C [Compound I-53] | 0.01 to 100 | 100 to 1000 | 0.1 to 10 | 10 to 30 | 0.1 to 10
Cc1cccnc1[C@@H]1CCC[C@H](c2nc3ccccn3c2N2CCN(C)CC2)N1 [Compound I-154] | 100 to 1000 | ≥ 1000 | 0.1 to 10 | 10 to 30 | 0.1 to 10
Cc1cccnc1[C@@H]1CCC[C@H](c2cn3c(N4CCN(C)CC4)c(F)ccc3n2)N1C [Compound I-106] | 0.01 to 100 | 0.01 to 100 | 0.1 to 10 | 10 to 30 | 0.1 to 10
Cc1cccnc1[C@@H]1CCC[C@H](c2cn3c(N4CCN(C)CC4)cccc3n2)N1CCCO [Compound I-49] | 0.01 to 100 | 0.01 to 100 | 0.1 to 10 | 10 to 30 | 0.1 to 10
Cc1cccnc1[C@@H]1CCC[C@H](c2cn3c(N4CCN(C)CC4)ccc(N)c3n2)N1C [Compound I-76] | 0.01 to 100 | 0.01 to 100 | 0.1 to 10 | 10 to 30 | 10 to 30
